“Also recorded” adds a separate entry of the source.
Assays:
[1] = Mean arterial blood pressure in 3×TG AD mice; type: in vivo; conditions: 3×TG mice
Description: A 10 month continuous dose study was performed in the 3×TG Alzheimer's Disease (AD) mouse model containing the triple mutations (APP(swe), PS1(M146V), tau(P301L)) from Jackson labs. Synaptic dysfunction and LTP deficits manifests in an age-related manner beginning from 2-6 months that occurs prior to Aβ pathology (87, herein incorporated by reference). Hippocampal-dependent cognitive impairments begin at 4-6 months depending upon the strain (88-89, herein incorporated by reference). 3×Tg mice have documented cognitive deficits in the Morris water maze (88) and Barnes maze (9, 90). Deficits in long-term synaptic plasticity correlate with the accumulation of intraneuronal Aβ (88). 3×Tg have decreased neurogenesis in both SGZ and SVZ before Aβ pathology and treatments that increased neurogenesis improved memory in 3×TG mice (18-19, herein incorporated by reference).
(§1) AD mice were first randomized and sorted into control or treatment groups. […] 14 AD mice from each treatment group received Compound 3 in the drinking water (2.611 mg/kg/bw) to deliver a daily dose near the peak potentiation of the cAMP response in the brain at 10^−8M based upon the PAM assay and pharmacokinetics. This was achieved by adding Compound 3 to the drinking water at 32 uM, assuming the mice drink 6 ml/day, with only 10% of bioavailable drug reaching the brain. The drug was administered in the drinking water for 10 months, starting at age 2 months, then subjected to either different cognitive behavioral tests or electrophysiology at age 12 months to maximize the manifestations of AD symptoms in these mice. Mice are maintained on the drug for the duration of the studies and blinded to the operator.
At 12 months of age mice were subjected to long term potentiation (LTP) (FIG. 25).
Assessment: Blood pressure. […]

[2] = tested on: 3×TG Alzheimer's Disease (AD) mouse model; assay: Shortened Barnes Maze in 3×TG AD mice; type: in vivo
Description: as §1
Barnes Maze. The Barnes maze is used to assess spatial learning and memory and consists of a white, flat, circular platform elevated above ground with 40 holes, under which one escape box is located. Three visual cues are placed surrounding the maze and their locations in relation to the escape box and remain constant. Two floodlights and four fans above the maze provide aversion. […] At the start of each trial, a mouse is placed in the center of the maze under a holding chamber for 30 seconds. When the chamber is lifted, the mouse is allowed up to 300 seconds to enter the escape box. […] […] The procedure for the memory trials is the same as learning, except the mice are allowed only one attempt to solve the maze each day. Data includes the time to solve, number of errors made, and distance traveled. Errors are defined as when a mouse poked more than three-quarters of its head into any hole other than the appropriate escape hole. Distance traveled is measured using ANY-MAZE software.

[3] = drinking water 2.611 mg/kg/bw, N=13-16

With `CC(C)Cc1c(OCC2=NCCN2)cccc1N(C)S(C)(=O)=O` [Compound 3, N-[3-(4,5-Dihydro-1H-imidazol-2-ylmethoxy)-2-isobutyl-phenyl]-N-methyl-methanesulfonamide] the “blood pressure, treated vs untreated” value [1] was “no significant differences; also recorded: does not affect blood pressure”, the “mean arterial blood pressure, treated females (F)” value [1, 3] was 85±2.4 and the “mean arterial blood pressure, treated males (M)” value [1, 3] was 97±3. For the same molecule, the “time to find the escape hole, day 5 memory test” value ([2]; AD mice, approached significance) was “decreased the time to find the escape hole”, the “finding the correct escape hole (number of head pokes)” value ([2]; female AD mice, day 5 probe) was “increase the ability of female AD mice to find the correct escape hole” and the “latency to the escape hole during training period” value ([2]; male AD mice, 5 day training) was “significantly decrease the latency”.

Source: US12384751B2, “Allosteric activators of the ALPHA1A-adrenergic receptor” (The Cleveland Clinic Foundation, priority 2019, dated 2025)
